# Like-named read-outs stand apart in the source and are kept apart here.
# Tested on: Cryptosporidium parvum
# Assay: Anti-cryptosporidial efficacy assay (44-h infection/qRT-PCR)
# Details: for On-target (Eon) rate at EC50: Eq 2; for Eoff, proportion of off-parasite-target effect / Eon, proportion of on-parasite-target effect: MDR1(PTX) vs. NC model, Eq 3 and 4; for EC50: read-out: Antiparasitic efficacy (EC50)
substance,measurement,setting,value
Ivermectin,On-target (Eon) rate at EC50,MDR1(PTX) cell model,77.1%
same,On-target (Eon) rate at EC50,"MDR1(PTX) cell model, listed as IVM",77.1%
same,Off-target (Eoff) rate at EC50,"MDR1(PTX) cell model, from Pct changes of EC50 and TC50 (Eq 1)",22.9%
same,Action on parasite target (on-target) conclusion,MDR1-transgenic host cell model,partially on-target
same,"Eoff, proportion of off-parasite-target effect",at EC10,18.40%
same,"Eon, proportion of on-parasite-target effect",at EC10,81.60%
same,"Eon, proportion of on-parasite-target effect","at EC10, listed as IVM",81.6%
same,"Eoff, proportion of off-parasite-target effect",at EC20,20.10%
same,"Eon, proportion of on-parasite-target effect",at EC20,79.90%
same,"Eoff, proportion of off-parasite-target effect",at EC30,21.20%
same,"Eon, proportion of on-parasite-target effect",at EC30,78.80%
same,"Eoff, proportion of off-parasite-target effect",at EC40,22.10%
same,"Eon, proportion of on-parasite-target effect",at EC40,77.90%
same,"Eoff, proportion of off-parasite-target effect",at EC50,22.8%
same,"Eon, proportion of on-parasite-target effect",at EC50,77.2%
same,"Eoff, proportion of off-parasite-target effect",at EC60,23.60%
same,"Eon, proportion of on-parasite-target effect",at EC60,76.40%
same,"Eoff, proportion of off-parasite-target effect",at EC70,24.40%
same,"Eon, proportion of on-parasite-target effect",at EC70,75.60%
same,"Eoff, proportion of off-parasite-target effect",at EC80,25.30%
same,"Eon, proportion of on-parasite-target effect",at EC80,74.70%
same,"Eoff, proportion of off-parasite-target effect",at EC90,26.60%
same,"Eon, proportion of on-parasite-target effect",at EC90,73.40%
same,"Eon, proportion of on-parasite-target effect","at EC90, listed as IVM",73.4%
same,EC50,C. parvum cultured in MDR1(PTX) host cells,4.25 µM
same,EC50,C. parvum cultured in NC host cells,3.23 µM
same,EC50,C. parvum cultured in WT host cells,3.16 µM
